Assay results from patent US4015974A, “Amido phosphorothiolates” (priority 1972, dated 1977).

How the values were obtained:
Format in all cases: in vivo
[1] = system: barnyard grass (Echinochloa crus-galli); test: Pre-emergence application, herbicidal effect on barnyard grass (Table 1); set-up: key: 0: not damaged; 5: completely killed; settings: 20 days after application, score 0-5
Method in brief: (§1)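 Compounds, formulated as water-diluted wettable powder, were applied to the soil surface after sowing and covering the seeds in pots of about 10 cm. Effects were rated on a 0 (no damage) to 5 (complete kill) scale after 20 days of greenhouse growth.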

[2] = system: large crabgrass (Digitaria sanguinalis); test: Pre-emergence application, herbicidal effect on large crabgrass (Table 1); set-up: key: 0: not damaged; 5: completely killed; settings: 20 days after application, score 0-5
Method in brief: as §1

radish = test: Pre-emergence application, herbicidal effect on radish (Table 1); set-up: key: 0: not damaged; 5: completely killed; settings: 20 days after application, score 0-5
Method in brief: as §1

[3] = system: redroot pigweed (Amaranthus retroflexus); test: Pre-emergence application, herbicidal effect on redroot pigweed (Table 1); set-up: key: 0: not damaged; 5: completely killed; settings: 20 days after application, score 0-5
Method in brief: as §1

[4] = system: common purslane (Portulaca oleracea); test: Pre-emergence application, herbicidal effect on common purslane (Table 1); set-up: key: 0: not damaged; 5: completely killed; settings: 20 days after application, score 0-5
Method in brief: as §1

[5] = system: common lambsquarter (Chenopodium album); test: Pre-emergence application, herbicidal effect on common lambsquarter (Table 1); set-up: key: 0: not damaged; 5: completely killed; settings: 20 days after application, score 0-5
Method in brief: as §1

rice = test: Water application, phytotoxicity on rice (Table 2); set-up: key: 0: no effect; 1: very slightly affected; 2: slightly affected; 3: moderately affected; 4: considerably affected; 5: completely killed; settings: 25 days, score 0-5
Method in brief: (§2)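 Ratings on a 0–5 scale taken 25 days post-treatment for rice injury, barnyard grass, and naturally emerging monochoria, false pimpernel and toothcup. Compounds as wettable powder went onto waterlogged paddy soil holding rice seedlings transplanted at 3 leaves and barnyard grass seed.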

[6] = system: barnyard grass (Echinochloa crus-galli); test: Water application, herbicidal effect on barnyard grass (Table 2); set-up: key: 0: not damaged; 5: completely killed; settings: 25 days, score 0-5
Method in brief: as §2

[7] = system: broad-leaved weeds, e.g., monochoria, false pimpernel and toothcup; test: Water application, herbicidal effect on broad-leaved weeds (Table 2); set-up: key: 0: not damaged; 5: completely killed; settings: 25 days, score 0-5
Method in brief: as §2

[8] = system: broad-leaved weeds, e.g., monochoria, false pimpernel and toothcup; test: as above; set-up: key: 0: no effect; 1: very slightly affected; 2: slightly affected; 3: moderately affected; 4: considerably affected; 5: completely killed; settings: 10 g/a, 25 days, score 0-5
Text: Wagner pots of 14 cm. in diameter, which had been packed with 1.5 kg. of paddy field soil, were brought into the state of paddy fields. To the pots were transplanted rice seedlings at the 3-leave stage. Further, seeds of barnyard grass (Echinochloa crus-galli) were sowed in the pots and required amounts of test compounds were applied to the soil under water lodged condition. 25 days after application, the degrees of herbicidal activity and phytotoxity were investigated on above-mentioned plants which had been transplanted and sowed, and on broad-leaved weeds, e.g., monochoria (Monochoria viaginalis Presl.), false pimpernel (Linderna pyxidaria) and toothcup (Rotala indica Koehue), which had been spontaneously germinated. The test compounds were used in the form of wettable powder. The herbicidal effects and the phytotoxity were evaluated as follows by the numerals ranging from 0 to 5.

nematode = test: Effect on nematode (Table 7); set-up: tested at 500 ppm; settings: 500 p.p.m., 24 hours
Method: 0.5 ml. of a nematode-containing aqueous solution separated from food according to Baermann's method was placed in a test tube with ground stopper containing 0.5 ml. of an aqueous dilute solution of each emulsifiable concentrates of the present compounds. The concentration of the active ingredient in the mixture was adjusted to 500 p.p.m. After 24 hours, the death and alive were observed microscopically to calculate the mortality.

| Structure (SMILES) | Herbicidal effect, barnyard grass ([1]; 10 g./a.) | Herbicidal effect, barnyard grass ([1]; 20 g./a.) | Herbicidal effect, barnyard grass ([1]; 40 g./a.) | Herbicidal effect, large crabgrass ([2]; 10 g./a.) | Herbicidal effect, large crabgrass ([2]; 20 g./a.) | Herbicidal effect, large crabgrass ([2]; 40 g./a.) | Herbicidal effect, radish (radish; 10 g./a.) | Herbicidal effect, radish (radish; 20 g./a.) | Herbicidal effect, radish (radish; 40 g./a.) | Herbicidal effect, redroot pigweed ([3]; 10 g./a.) | Herbicidal effect, redroot pigweed ([3]; 20 g./a.) | Herbicidal effect, redroot pigweed ([3]; 40 g./a.) | Herbicidal effect, common purslane ([4]; 10 g./a.) | Herbicidal effect, common purslane ([4]; 20 g./a.) | Herbicidal effect, common purslane ([4]; 40 g./a.) | Herbicidal effect, common lambsquarter ([5]; 10 g./a.) | Herbicidal effect, common lambsquarter ([5]; 20 g./a.) | Herbicidal effect, common lambsquarter ([5]; 40 g./a.) | Phytotoxicity on rice (rice; 10 g/a) | Phytotoxicity on rice (rice; 20 g/a) | also measured |
| --- | --- | --- | --- | --- | --- | --- | --- | --- | --- | --- | --- | --- | --- | --- | --- | --- | --- | --- | --- | --- | --- |
| CCCCCCCCSP(=O)(OCC)SCC(=O)N1CCCCC1C (stereo not drawn) [Compound 8] | 4 | 4 | 5 | 4 | 4 | 5 | 0 | 0 | 0 | 3 | 4 | 4 | 4 | 4 | 4 | 3 | 4 | 4 | 0 | 0 | Phytotoxicity on rice (rice; 40 g/a): 0; Herbicidal effects, barnyard grass ([6]; 10 g/a): 5; Herbicidal effects, barnyard grass ([6]; 20 g/a): 5; Herbicidal effects, barnyard grass ([6]; 40 g/a): 5; Herbicidal effects, broad-leaved weeds ([7]; 20 g/a): 5; Herbicidal effects, broad-leaved weeds ([7]; 40 g/a): 5; Herbicidal effects, broad-leaved weeds [8]: 4 |
| CCCSP(=O)(OCC)SCC(=O)N1CCC(C)CC1 (stereo not drawn) [Compound 12] | 5 | 5 | 5 | 5 | 5 | 5 | 0 | 0 | 0 | 4 | 5 | 5 | 5 | 5 | 5 | 5 | 5 | 5 | 0 | 0 | Phytotoxicity on rice (rice; 40 g/a): 0; Mortality (nematode): 100%; Herbicidal effects, barnyard grass ([6]; 10 g/a): 5; Herbicidal effects, barnyard grass ([6]; 20 g/a): 5; Herbicidal effects, barnyard grass ([6]; 40 g/a): 5; Herbicidal effects, broad-leaved weeds ([7]; 10 g/a): 5; Herbicidal effects, broad-leaved weeds ([7]; 20 g/a): 5; Herbicidal effects, broad-leaved weeds ([7]; 40 g/a): 5 |
| CCCCSP(=O)(OCCC)SCC(=O)N1CCCCC1C (stereo not drawn) [Compound 17] | 4 | 4 | 5 | 4 | 5 | 5 | 0 | 0 | 0 | 3 | 4 | 4 | 3 | 4 | 4 | 4 | 4 | 5 | 0 | 0 | Phytotoxicity on rice (rice; 40 g/a): 0; Herbicidal effects, barnyard grass ([6]; 10 g/a): 5; Herbicidal effects, barnyard grass ([6]; 20 g/a): 5; Herbicidal effects, barnyard grass ([6]; 40 g/a): 5; Herbicidal effects, broad-leaved weeds ([7]; 20 g/a): 5; Herbicidal effects, broad-leaved weeds ([7]; 40 g/a): 5; Herbicidal effects, broad-leaved weeds [8]: 4 |
| CCOP(=O)(SCC(=O)N1CCCC(C)C1)SCC(C)C (stereo not drawn) [Compound 28] |  |  |  |  |  |  |  |  |  |  |  |  |  |  |  |  |  |  |  |  | Mortality (nematode): 100% |
| C#CCSP(=O)(OCC)SCC(=O)N1CCCCC1C (stereo not drawn) [Compound 33] |  |  |  |  |  |  |  |  |  |  |  |  |  |  |  |  |  |  |  |  | Mortality (nematode): 100% |
| CCOP(=O)(SCC(=O)N1CCCCC1C)SCc1ccc(C)cc1 (stereo not drawn) [Compound 52] | 5 | 5 | 5 | 5 | 5 | 5 | 0 | 0 | 0 | 4 | 4 | 5 | 3 | 4 | 5 | 3 | 4 | 5 | 0 | 0 | Phytotoxicity on rice (rice; 40 g/a): 0; Mortality (nematode): 85.7%; Herbicidal effects, barnyard grass ([6]; 10 g/a): 5; Herbicidal effects, barnyard grass ([6]; 20 g/a): 5; Herbicidal effects, barnyard grass ([6]; 40 g/a): 5; Herbicidal effects, broad-leaved weeds ([7]; 10 g/a): 5; Herbicidal effects, broad-leaved weeds ([7]; 20 g/a): 5; Herbicidal effects, broad-leaved weeds ([7]; 40 g/a): 5 |
| CCOP(=O)(SCC(=O)N1CCCCC1CC)SCc1ccc(Br)cc1 (stereo not drawn) [Compound 57] |  |  |  |  |  |  |  |  |  |  |  |  |  |  |  |  |  |  |  |  | Mortality (nematode): 91.0% |
| CCCCOP(=O)(SCCC(C)C)SCC(=O)N1CCCCC1CC (stereo not drawn) [Compound 99] | 4 | 5 | 5 | 5 | 5 | 5 | 0 | 0 | 0 | 4 | 5 | 5 | 5 | 5 | 5 | 5 | 5 | 5 | 0 | 0 | Phytotoxicity on rice (rice; 40 g/a): 0; Herbicidal effects, barnyard grass ([6]; 10 g/a): 5; Herbicidal effects, barnyard grass ([6]; 20 g/a): 5; Herbicidal effects, barnyard grass ([6]; 40 g/a): 5; Herbicidal effects, broad-leaved weeds ([7]; 10 g/a): 5; Herbicidal effects, broad-leaved weeds ([7]; 20 g/a): 5; Herbicidal effects, broad-leaved weeds ([7]; 40 g/a): 5 |
| CCOP(=O)(SCC)SCC(=O)N1CCC(C)CC1 (stereo not drawn) [Compound 100] | 4 | 5 | 5 | 5 | 5 | 5 | 0 | 0 | 1 | 4 | 4 | 5 | 3 | 4 | 5 | 3 | 4 | 5 | 0 | 0 | Phytotoxicity on rice (rice; 40 g/a): 0; Herbicidal effects, barnyard grass ([6]; 10 g/a): 5; Herbicidal effects, barnyard grass ([6]; 20 g/a): 5; Herbicidal effects, barnyard grass ([6]; 40 g/a): 5; Herbicidal effects, broad-leaved weeds ([7]; 10 g/a): 5; Herbicidal effects, broad-leaved weeds ([7]; 20 g/a): 5; Herbicidal effects, broad-leaved weeds ([7]; 40 g/a): 5 |
| ClC=CCCl [Dichloropropene, reference compound] |  |  |  |  |  |  |  |  |  |  |  |  |  |  |  |  |  |  |  |  | Mortality (nematode): 79.3% |
